PubChem BioAssay (NCI)
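At the GI50, growth is halved. TGI: total growth inhibition.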

Experiments:
Assay in all cases: NCI tumour cell line growth inhibition, 384-well format
SR leukemia = tested on: SR leukemia
OVCAR-3 ovarian = tested on: OVCAR-3 ovarian
OVCAR-4 ovarian = tested on: OVCAR-4 ovarian
786-0 renal = tested on: 786-0 renal
KM12 colon = tested on: KM12 colon
NCI-H460 NSCLC = tested on: NCI-H460 NSCLC
U251 glioblastoma = tested on: U251 glioblastoma
IGROV1 ovarian = tested on: IGROV1 ovarian
MDA-MB-435 melanoma = tested on: MDA-MB-435 melanoma
SN12C renal = tested on: SN12C renal
UO-31 renal = tested on: UO-31 renal
SK-MEL-2 melanoma = tested on: SK-MEL-2 melanoma
MOLT-4 leukemia = tested on: MOLT-4 leukemia

CC(C)(O)c1cc(Nc2cc(Oc3cn(C4CC4)nc3C3CCOCC3)ccn2)ccn1
GI50 (SR leukemia): 24.8 µM | TGI (SR leukemia): > 75.9 µM | GI50 (OVCAR-3 ovarian): 52.8 µM | TGI (OVCAR-3 ovarian): > 100 µM | GI50 (OVCAR-4 ovarian): > 100 µM | TGI (OVCAR-4 ovarian): > 100 µM | GI50 (786-0 renal): > 72.6 µM | TGI (786-0 renal): > 100 µM | GI50 (KM12 colon): 97.1 µM | TGI (KM12 colon): > 100 µM | GI50 (NCI-H460 NSCLC): 38.8 µM | TGI (NCI-H460 NSCLC): > 100 µM | GI50 (U251 glioblastoma): > 100 µM | TGI (U251 glioblastoma): > 100 µM | GI50 (IGROV1 ovarian): > 100 µM | TGI (IGROV1 ovarian): > 100 µM | GI50 (MDA-MB-435 melanoma): > 100 µM | TGI (MDA-MB-435 melanoma): > 100 µM | GI50 (SN12C renal): > 82 µM | TGI (SN12C renal): > 100 µM | GI50 (UO-31 renal): > 100 µM | TGI (UO-31 renal): > 100 µM | GI50 (SK-MEL-2 melanoma): > 100 µM | TGI (SK-MEL-2 melanoma): > 100 µM | GI50 (MOLT-4 leukemia): 42.7 µM | TGI (MOLT-4 leukemia): > 100 µM
